What is called pEC50 is the negative decadic logarithm of the EC50, by convention in mol/L. In general, pKi refers to the negative decadic logarithm of the Ki, by convention in mol/L. A low value points to a large Ki.

The target of experiment [1] is T1, Adenosine receptor A1 (Rattus norvegicus, UniProt P25099).
T1 sequence (P25099 whole entry): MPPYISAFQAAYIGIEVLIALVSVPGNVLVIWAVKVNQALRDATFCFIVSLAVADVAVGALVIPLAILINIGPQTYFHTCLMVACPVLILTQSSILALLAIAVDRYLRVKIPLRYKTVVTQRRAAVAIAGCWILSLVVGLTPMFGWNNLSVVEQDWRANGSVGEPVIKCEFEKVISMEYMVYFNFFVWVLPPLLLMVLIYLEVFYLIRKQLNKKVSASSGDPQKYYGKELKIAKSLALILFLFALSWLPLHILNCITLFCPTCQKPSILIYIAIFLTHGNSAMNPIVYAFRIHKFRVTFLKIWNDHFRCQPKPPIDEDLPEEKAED
Briefly: Activity at Adenosine A1 receptor of rat atria. Format: functional.

Experiment [2] has as its target T1, Adenosine receptor A1.
Description: Displacement of [3H]CHA from Adenosine A1 receptor of rat brain
Experiment [3] deals with T2, Adenosine receptor A2a (Rattus norvegicus, UniProt P30543).
The target of experiment [4] is T2, Adenosine receptor A2a. The source holds these as a separate data set.
Description: Functional activity at Adenosine A2A receptor as vasorelaxation of rat aorta

Structures are written as SMILES. pEC50, pKi: −log10 of the molar value.

T2 sequence (P30543 whole entry): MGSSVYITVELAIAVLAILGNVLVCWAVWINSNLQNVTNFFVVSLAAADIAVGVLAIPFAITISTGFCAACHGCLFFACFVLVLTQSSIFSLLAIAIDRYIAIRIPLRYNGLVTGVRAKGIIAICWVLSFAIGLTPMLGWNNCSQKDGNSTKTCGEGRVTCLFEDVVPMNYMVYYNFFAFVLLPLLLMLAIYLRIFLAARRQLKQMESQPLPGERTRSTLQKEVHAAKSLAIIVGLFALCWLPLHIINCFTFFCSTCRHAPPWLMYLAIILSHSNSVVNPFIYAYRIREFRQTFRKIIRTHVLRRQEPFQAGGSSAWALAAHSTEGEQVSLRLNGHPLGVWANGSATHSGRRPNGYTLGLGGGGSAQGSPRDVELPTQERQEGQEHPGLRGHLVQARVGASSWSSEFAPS

For the molecule `Nc1nc(N/N=C/C=C(c2ccccc2)c2ccccc2)nc2c1ncn2[C@@H]1O[C@H](CO)[C@@H](O)[C@H]1O`, the pEC50 in experiment [1] is under 5.73; in experiment [4] it was 6.15. Further, the pKi in experiment [2] was 7.19; in experiment [3], under 6.00.
Taken in the same sequence, the figures for `CN(C)c1ccc(/C=C/C=N/Nc2nc(N)c3ncn([C@@H]4O[C@H](CO)[C@@H](O)[C@H]4O)c3n2)cc1` were 6.06, 6.14, 7.00 and 6.77.
In the case of `COc1ccccc1/C=C/C=N/Nc1nc(N)c2ncn([C@@H]3O[C@H](CO)[C@@H](O)[C@H]3O)c2n1`, the values for the pEC50 in experiment [1] and in experiment [4] were 5.71 and 6.28, respectively. Further, the pKi in experiment [2] was 6.58; in experiment [3], 6.42.
Consider `Nc1nc(N/N=C/C=C/c2ccco2)nc2c1ncn2[C@@H]1O[C@H](CO)[C@@H](O)[C@H]1O`, for which the pEC50 was 5.36 in experiment [1] and 6.10 in experiment [4]. The pKi in experiment [2] was 5.78; in experiment [3], 7.08.
For `Nc1nc(N/N=C/C=C/c2ccc([N+](=O)[O-])cc2)nc2c1ncn2[C@@H]1O[C@H](CO)[C@@H](O)[C@H]1O` the same measures were under 5.00, 6.32, 6.28 and 7.64.
`Nc1nc(N/N=C/C=C/c2ccccc2[N+](=O)[O-])nc2c1ncn2[C@@H]1O[C@H](CO)[C@@H](O)[C@H]1O`: the pEC50 in experiment [1] was under 5.00; in experiment [4], 6.20. The pKi is 6.03 in experiment [2] and 7.27 in experiment [3].
With `COc1cc(/C=C/C=N/Nc2nc(N)c3ncn([C@@H]4O[C@H](CO)[C@@H](O)[C@H]4O)c3n2)ccc1O`, the pEC50 in experiment [1] is 5.31; in experiment [4] it was 6.55. In addition, the figures for the pKi in experiment [2] and in experiment [3] were 6.26 and 7.57, respectively.
As to `COc1ccc(/C=C/C=N/Nc2nc(N)c3ncn([C@@H]4O[C@H](CO)[C@@H](O)[C@H]4O)c3n2)cc1`, the pEC50 is under 5.00 in experiment [1] and 6.17 in experiment [4]. The values for the negative logarithm of the Ki (pKi) in experiment [2] and in experiment [3] were 6.37 and 7.23, respectively.
`Nc1nc(N/N=C/C=C/c2ccccc2)nc2c1ncn2[C@@H]1O[C@H](CO)[C@@H](O)[C@H]1O`: the results for the pEC50 in experiment [1] and in experiment [4] were under 5.00 and 6.57, respectively. Also, the pKi in experiment [2] is 5.98; in experiment [3], 7.42.
For `Nc1nc(N/N=C/c2ccco2)nc2c1ncn2[C@@H]1O[C@H](CO)[C@@H](O)[C@H]1O` the same measures were under 5.00, 6.71, 5.73 and 7.38.
Taken in the same sequence, the figures for `Cc1ccc(/C=N/Nc2nc(N)c3ncn(C4O[C@H](CO)[C@@H](O)[C@H]4O)c3n2)cc1` (some centres undefined) were under 5.00, 6.13, 5.75 and 7.54.

The values above are taken from ChEMBL document CHEMBL1128544, “2-[N'-(3-arylallylidene)hydrazino]adenosines showing A2a adenosine agonist properties and vasodilation activity” (J Med Chem, 1995).
